# Assays:
# Assay type in all cases: in vivo
# [1] = test system: pigweed (Amaranthus retroflexus); experiment: Test A greenhouse herbicide test, pre- and postemergence
# Method in brief: (§1)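 Seeds in loam–sand blend received a preemergence directed soil spray; plants at 2–10 cm, one- to two-leaf stage, received postemergence sprays. Compounds in a non-phytotoxic solvent with surfactant. After about 10 d in a greenhouse, injury rated visually versus untreated controls on a 0–100 scale (100 = complete control).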
# kochia (Kochia scoparia) = experiment: as above
# Method in brief: as §1
# [2] = test system: ragweed (common ragweed, Ambrosia elatior); experiment: as above
# Method in brief: as §1
# [3] = test system: foxtail, giant (giant foxtail, Setaria faberii); experiment: as above
# Method in brief: as §1
# [4] = test system: wheat (Triticum aestivum); experiment: as above; settings: Postemergence
# Method in brief: as §1
# [5] = test system: pigweed (Amaranthus retroflexus); experiment: Test C greenhouse herbicide test, pre- and postemergence
# Method in brief: (§2)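 Pre- and postemergence greenhouse screen; values are visual control ratings, 0 meaning no effect and 100 complete kill, assigned relative to untreated plants after 13 to 15 d.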
# [6] = test system: ryegrass, Italian (Italian ryegrass, Lolium multiflorum); experiment: as above
# Method in brief: as §2
# corn (Zea mays) = experiment: as above
# Method in brief: as §2
# [7] = test system: velvetleaf (Abutilon theophrasti); experiment: as above
# Method in brief: as §2
# [8] = test system: blackgrass (Alopecurus myosuroides); experiment: as above
# Method in brief: as §2
# [9] = test system: morningglory (Ipomoea coccinea); experiment: as above
# Method in brief: as §2
# [10] = Postemergence, 125 g ai/ha, 0 to 100 scale where 0 is no effect and 100 is complete control
# [11] = Postemergence, 500 g ai/ha, visual rating after approx. 10 d, 0 to 100 scale (0 no effect, 100 complete control)
# [12] = Preemergence, 125 g ai/ha, 0 to 100 scale where 0 is no effect and 100 is complete control
# [13] = Preemergence, 500 g ai/ha, 0 to 100 scale where 0 is no effect and 100 is complete control
# [14] = 125 g ai/ha, 0 to 100 scale where 0 is no effect and 100 is complete control
# [15] = 500 g ai/ha, visual rating after approx. 10 d, 0 to 100 scale (0 no effect, 100 complete control)
# [16] = Postemergence, 31 g ai/ha, scale 0 to 100 (0 no effect, 100 complete control)
# [17] = Postemergence, 62 g ai/ha, 0 to 100 scale (0 no effect, 100 complete control)
# [18] = Postemergence, 250 g ai/ha, scale 0 to 100, 0 no effect, 100 complete control, 13 to 15 d
# [19] = Preemergence, 31 g ai/ha, scale 0 to 100, 0 is no effect, 100 is complete control
# [20] = Preemergence, 62 g ai/ha, scale 0 to 100, 0 is no effect, 100 is complete control
# [21] = Preemergence, 125 g ai/ha, scale 0 to 100, 0 is no effect, 100 is complete control
# [22] = Preemergence, 250 g ai/ha, scale 0 to 100, 0 no effect, 100 complete control
# [23] = postemergence, 125 g ai/ha, scale 0 to 100, 0 no effect, 100 complete control
smiles,measurement,setting,value
CC(=O)Oc1c(C)nn(C)c(=O)c1-c1c(C)sc2ccc(C(F)(F)F)cc12 [Compound 132],"Plant response rating, Pigweed",[1]; [10],60
same,"Plant response rating, Pigweed",[1]; [11],90
same,Pigweed plant response rating,[1]; [12],90
same,"Plant response rating, Pigweed",[1]; [13],100
same,"Plant response rating, Kochia",kochia (Kochia scoparia); [10],50
same,"Plant response rating, Kochia",kochia (Kochia scoparia); [11],80
same,Kochia plant response rating,kochia (Kochia scoparia); [12],60
same,"Plant response rating, Kochia",kochia (Kochia scoparia); [13],90
same,"Plant response rating, Ragweed",[2]; [10],100
same,"Plant response rating, Ragweed",[2]; [11],100
same,Ragweed plant response rating,[2]; [12],80
same,"Plant response rating, Ragweed",[2]; [13],90
same,"Plant response rating, Foxtail, Giant",[3]; [10],60
same,"Plant response rating, Foxtail, Giant",[3]; [11],80
same,"Foxtail, Giant plant response rating",[3]; [12],70
same,"Plant response rating, Foxtail, Giant",[3]; [13],90
same,"Plant response rating, Wheat",[4]; [14],0
same,"Plant response rating, Wheat",[4]; [15],20
same,"Plant response rating, Pigweed",[5]; [16],50
same,Pigweed plant response rating,[5]; [17],55
same,"Plant response rating, Pigweed",[5]; [18],65
same,"Plant response rating, Pigweed",[5]; [19],100
same,"Plant response rating, Pigweed",[5]; [20],100
same,"Plant response rating, Pigweed",[5]; [21],100
same,Pigweed plant response rating,[5]; [22],100
same,Pigweed plant response rating,[5]; [23],70
same,"Plant response rating, Ryegrass, Italian",[6]; [16],80
same,"Ryegrass, Italian plant response rating",[6]; [17],85
same,"Plant response rating, Ryegrass, Italian",[6]; [18],95
same,"Plant response rating, Ryegrass, Italian",[6]; [19],45
same,"Plant response rating, Ryegrass, Italian",[6]; [20],90
same,"Plant response rating, Ryegrass, Italian",[6]; [21],95
same,"Ryegrass, Italian plant response rating",[6]; [22],95
same,"Ryegrass, Italian plant response rating",[6]; [23],95
same,"Plant response rating, Corn",corn (Zea mays); [16],0
same,Corn plant response rating,corn (Zea mays); [17],5
same,"Plant response rating, Corn",corn (Zea mays); [18],10
same,"Plant response rating, Corn",corn (Zea mays); [19],0
same,"Plant response rating, Corn",corn (Zea mays); [20],0
same,"Plant response rating, Corn",corn (Zea mays); [21],0
same,Corn plant response rating,corn (Zea mays); [22],10
same,Corn plant response rating,corn (Zea mays); [23],5
same,"Plant response rating, Velvetleaf",[7]; [16],30
same,Velvetleaf plant response rating,[7]; [17],40
same,"Plant response rating, Velvetleaf",[7]; [18],75
same,"Plant response rating, Velvetleaf",[7]; [19],60
same,"Plant response rating, Velvetleaf",[7]; [20],60
same,"Plant response rating, Velvetleaf",[7]; [21],90
same,Velvetleaf plant response rating,[7]; [22],95
same,Velvetleaf plant response rating,[7]; [23],65
same,"Plant response rating, Blackgrass",[8]; [16],5
same,Blackgrass plant response rating,[8]; [17],5
same,"Plant response rating, Blackgrass",[8]; [18],45
same,"Plant response rating, Blackgrass",[8]; [19],20
same,"Plant response rating, Blackgrass",[8]; [20],45
same,"Plant response rating, Blackgrass",[8]; [21],40
same,Blackgrass plant response rating,[8]; [22],50
same,Blackgrass plant response rating,[8]; [23],25
same,"Plant response rating, Morningglory",[9]; [16],65
same,Morningglory plant response rating,[9]; [17],80
same,"Plant response rating, Morningglory",[9]; [18],98
same,"Plant response rating, Morningglory",[9]; [19],40
same,"Plant response rating, Morningglory",[9]; [20],65
same,"Plant response rating, Morningglory",[9]; [21],95
same,Morningglory plant response rating,[9]; [22],90
same,Morningglory plant response rating,[9]; [23],95
CCC(=O)Oc1c(C)nn(C)c(=O)c1-c1ccc(Br)c2ccccc12 [Compound 134],"Plant response rating, Pigweed",[1]; [10],90
same,"Plant response rating, Pigweed",[1]; [11],100
same,Pigweed plant response rating,[1]; [12],100
same,"Plant response rating, Pigweed",[1]; [13],100
same,"Plant response rating, Kochia",kochia (Kochia scoparia); [10],100
same,"Plant response rating, Kochia",kochia (Kochia scoparia); [11],100
same,Kochia plant response rating,kochia (Kochia scoparia); [12],70
same,"Plant response rating, Kochia",kochia (Kochia scoparia); [13],100
same,"Plant response rating, Ragweed",[2]; [10],100
same,"Plant response rating, Ragweed",[2]; [11],100
same,Ragweed plant response rating,[2]; [12],80
same,"Plant response rating, Ragweed",[2]; [13],90
same,"Plant response rating, Foxtail, Giant",[3]; [10],20
same,"Plant response rating, Foxtail, Giant",[3]; [11],80
same,"Foxtail, Giant plant response rating",[3]; [12],50
same,"Plant response rating, Foxtail, Giant",[3]; [13],90
same,"Plant response rating, Wheat",[4]; [14],30
same,"Plant response rating, Wheat",[4]; [15],30
same,"Plant response rating, Pigweed",[5]; [16],80
same,Pigweed plant response rating,[5]; [17],100
same,"Plant response rating, Pigweed",[5]; [18],100
same,"Plant response rating, Pigweed",[5]; [19],75
same,"Plant response rating, Pigweed",[5]; [20],100
same,"Plant response rating, Pigweed",[5]; [21],100
same,Pigweed plant response rating,[5]; [22],100
same,Pigweed plant response rating,[5]; [23],100
same,"Plant response rating, Ryegrass, Italian",[6]; [16],5
same,"Ryegrass, Italian plant response rating",[6]; [17],15
same,"Plant response rating, Ryegrass, Italian",[6]; [18],40
same,"Plant response rating, Ryegrass, Italian",[6]; [19],98
same,"Plant response rating, Ryegrass, Italian",[6]; [20],100
same,"Plant response rating, Ryegrass, Italian",[6]; [21],100
same,"Ryegrass, Italian plant response rating",[6]; [22],100
same,"Ryegrass, Italian plant response rating",[6]; [23],20
same,"Plant response rating, Corn",corn (Zea mays); [16],5
same,Corn plant response rating,corn (Zea mays); [17],10
same,"Plant response rating, Corn",corn (Zea mays); [18],15
same,"Plant response rating, Corn",corn (Zea mays); [19],0
same,"Plant response rating, Corn",corn (Zea mays); [20],0
same,"Plant response rating, Corn",corn (Zea mays); [21],10
same,Corn plant response rating,corn (Zea mays); [22],5
same,Corn plant response rating,corn (Zea mays); [23],10
same,"Plant response rating, Velvetleaf",[7]; [16],80
same,Velvetleaf plant response rating,[7]; [17],90
same,"Plant response rating, Velvetleaf",[7]; [18],100
same,"Plant response rating, Velvetleaf",[7]; [19],75
same,"Plant response rating, Velvetleaf",[7]; [20],90
same,"Plant response rating, Velvetleaf",[7]; [21],90
same,Velvetleaf plant response rating,[7]; [22],100
same,Velvetleaf plant response rating,[7]; [23],100
same,"Plant response rating, Blackgrass",[8]; [16],50
same,Blackgrass plant response rating,[8]; [17],45
same,"Plant response rating, Blackgrass",[8]; [18],98
same,"Plant response rating, Blackgrass",[8]; [19],20
same,"Plant response rating, Blackgrass",[8]; [20],40
same,"Plant response rating, Blackgrass",[8]; [21],40
same,Blackgrass plant response rating,[8]; [22],75
same,Blackgrass plant response rating,[8]; [23],50
same,"Plant response rating, Morningglory",[9]; [16],98
same,Morningglory plant response rating,[9]; [17],100
same,"Plant response rating, Morningglory",[9]; [18],100
same,"Plant response rating, Morningglory",[9]; [19],75
same,"Plant response rating, Morningglory",[9]; [20],90
same,"Plant response rating, Morningglory",[9]; [21],95
same,Morningglory plant response rating,[9]; [22],100
same,Morningglory plant response rating,[9]; [23],100

# Source: patent US10597388B2, “Pyridazinone herbicides” (FMC CORPORATION, priority 2014, dated 2020)
